Experimental data reported in ChEMBL document CHEMBL1139020, “Aryl O- and S-galactosides and lactosides as specific inhibitors of human galectins-1 and -3: role of electrostatic potential at O-3” (Bioorg Med Chem Lett, 2006).

Assays:
[1] = target: Galectin-1 (Homo sapiens) (UniProt P09382); assay: Inhibition of Galectin1
[2] = target: Galectin-3 (Homo sapiens) (UniProt P17931); assay: Inhibition of Galectin3
Sequence of Galectin-3 (Homo sapiens) (P17931 whole entry): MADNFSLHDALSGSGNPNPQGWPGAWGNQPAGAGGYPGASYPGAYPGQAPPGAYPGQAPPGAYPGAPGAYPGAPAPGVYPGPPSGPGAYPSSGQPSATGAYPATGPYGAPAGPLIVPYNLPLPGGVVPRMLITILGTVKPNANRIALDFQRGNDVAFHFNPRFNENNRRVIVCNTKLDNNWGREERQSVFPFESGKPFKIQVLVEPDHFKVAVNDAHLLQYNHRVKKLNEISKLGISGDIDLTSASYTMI

Sequence of Galectin-1 (Homo sapiens) (P09382 whole entry): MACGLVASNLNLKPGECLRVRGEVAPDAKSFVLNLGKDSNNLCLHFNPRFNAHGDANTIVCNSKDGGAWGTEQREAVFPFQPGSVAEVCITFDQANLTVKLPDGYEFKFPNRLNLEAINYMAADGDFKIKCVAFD

Molecule	Activity [1]	Activity [2]
CC(=O)OC[C@H]1O[C@@H](Sc2ccc(Br)cc2)[C@H](OC(C)=O)[C@@H](OC(C)=O)[C@@H]1O[C@@H]1O[C@H](CO)[C@H](O)[C@H](O)[C@H]1O	0.313 mM	0.313 mM
CC(=O)OC[C@H]1O[C@@H](Oc2ccccc2[N+](=O)[O-])[C@H](OC(C)=O)[C@@H](OC(C)=O)[C@@H]1O[C@@H]1O[C@H](CO)[C@H](O)[C@H](O)[C@H]1O	0.08 mM	0.625 mM
CC(=O)OC[C@H]1O[C@@H](Sc2ccc([N+](=O)[O-])cc2)[C@H](OC(C)=O)[C@@H](OC(C)=O)[C@@H]1O[C@@H]1O[C@H](CO)[C@H](O)[C@H](O)[C@H]1O	0.313 mM	0.313 mM
CC(=O)OC[C@H]1O[C@@H](Sc2ccc([N+](=O)[O-])cc2)[C@H](OC(C)=O)[C@@H](OC(C)=O)[C@H]1O	2.5 mM	> 5 mM
COc1ccc(S(=O)(=O)[C@@H]2O[C@H](CO)[C@H](O)[C@H](O)[C@H]2O)cc1	> 5 mM	> 5 mM
LACTOSE, ANHYDROUS	0.8 mM	0.8 mM
O=S(=O)(c1ccc(Br)cc1)[C@@H]1O[C@H](CO)[C@@H](O[C@@H]2O[C@H](CO)[C@H](O)[C@H](O)[C@H]2O)[C@H](O)[C@H]1O	0.313 mM	0.313 mM

More lines, now with the values ahead:

Activity [1]	Activity [2]	Molecule
0.313 mM	0.625 mM	CC(=O)OC[C@H]1O[C@@H](Oc2ccc([N+](=O)[O-])cc2)[C@H](OC(C)=O)[C@@H](OC(C)=O)[C@@H]1O[C@@H]1O[C@H](CO)[C@H](O)[C@H](O)[C@H]1O
10 mM	10 mM	CC(=O)OC[C@H]1O[C@@H](Oc2ccc([N+](=O)[O-])cc2)[C@H](OC(C)=O)[C@@H](OC(C)=O)[C@H]1O
> 5 mM	2.5 mM	COc1ccc(S[C@@H]2O[C@H](COC(C)=O)[C@H](O)[C@H](OC(C)=O)[C@H]2OC(C)=O)cc1
> 5 mM	> 5 mM	CC(=O)OC[C@H]1O[C@@H](Oc2ccccc2[N+](=O)[O-])[C@H](OC(C)=O)[C@@H](OC(C)=O)[C@H]1O
0.313 mM	0.313 mM	COc1ccc(S[C@@H]2O[C@H](COC(C)=O)[C@@H](O[C@@H]3O[C@H](CO)[C@H](O)[C@H](O)[C@H]3O)[C@H](OC(C)=O)[C@H]2OC(C)=O)cc1
50 mM	50 mM	O=C[C@H](O)[C@@H](O)[C@@H](O)[C@H](O)CO
0.313 mM	0.313 mM	CC(=O)OC[C@H]1O[C@@H](Sc2ccc3ccccc3c2)[C@H](OC(C)=O)[C@@H](OC(C)=O)[C@@H]1O[C@@H]1O[C@H](CO)[C@H](O)[C@H](O)[C@H]1O
0.04 mM	0.313 mM	O=S(=O)(c1ccc2ccccc2c1)[C@@H]1O[C@H](CO)[C@@H](O[C@@H]2O[C@H](CO)[C@H](O)[C@H](O)[C@H]2O)[C@H](O)[C@H]1O
5 mM	5 mM	CC(=O)OC[C@H]1O[C@@H](Sc2ccc3ccccc3c2)[C@H](OC(C)=O)[C@@H](OC(C)=O)[C@H]1O
